Where a SMILES comes first, the peptide text is derived from it.
Experiments:
Assay type in all cases: biochemical
collagenase I (MMP-1) = assay: Collagenase activity assay, collagen thin film (collagen type II substrate); conditions: collagen thin film, collagen type II; peptide concentration not given
Protocol: Collagenase activity was assayed by collagen thin film method using collagen type II as substrate. IC50 values were graphically determined from the inhibition curves, constructed on the basis of the in vitro results of collagenase assays. Results are the mean±SD of 3 separate experiments done in triplicates. (•), P-NT.II; (□), PIP [59-67] dimer; (Δ), PIP [59-67} monomer; (∇), LY 315920.
Collagenase activity assay: Using collagen thin film as the substrate, a quantitative method was established to measure the enzymatic activity of the MMPs (principally collagenase). Collagen type II (Sigma) solution (4 μL, 3 mg/mL in 0.012 N HCl) was added to each well of 96-well plates and precipitated by slowly increasing the pH with 4 μL of H2O and 8 μL of 0.012 N NaOH. The plate was dried at 23° C. for 24 hr, washed with H2O, and dried again at 23° C., resulting in a thin film containing 12 μg of collagen that was tightly bound to the bottom of the wells. Enzymatic reactions of the collagenase I (with and without peptide inhibitors) against the collagen films were carried out in quadruplicate at 24° C. for 16 h. The digested portion of the film was washed away, while the undigested portion was fixed for 3 h with 0.1% Coomassie brilliant blue R in 10% acetic acid and 45% methanol, and the wells washed and dried.

[1] = target: T1, purified human synovial sPLA2 (human Type IIA sPLA2) (Homo sapiens, UniProt P14555); assay: sPLA2 inhibition, 3H-arachidonate-labelled E. coli membrane assay; conditions: for inhibition at 5 µM: read-out: % Inhibition (mean ± SD)
T1 construct: purchased Cayman Chemicals, USA
T1 sequence (P14555 21-144): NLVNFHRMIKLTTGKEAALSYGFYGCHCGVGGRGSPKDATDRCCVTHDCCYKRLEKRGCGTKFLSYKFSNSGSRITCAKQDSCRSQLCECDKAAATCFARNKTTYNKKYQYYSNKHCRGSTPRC
Protocol: In brief, [^3H] arachidonate-labeled E. coli membranes (0.005 mCi/mL; 5.8 μCi/μmol, NEN) were used as substrate, and 100 mM Tris-HCl—25 mM CaCl2, pH 7.5 solution as an assay buffer. The reaction mixture contained 20 μL of substrate, 0.85 pmole of purified human synovial sPLA2 (human Type IIA sPLA2, Cayman Chemicals, USA), and an increasing concentrations of the family of synthetic peptides derived from the sequence of PIP. The final volume of the reaction mixture was adjusted to 250 μL with an assay buffer. After incubation of the mixture (37° C., 1 h) and termination of the reaction with 750 μL of chilled PBS containing 1% BSA, microfuge tubes containing the samples were centrifuged (10,000 g at 4° C. for 15 min), and 500 μL aliquots of the supernatant taken to measure the amount of [^3H]-labeled arachidonate released from the E. coli membrane using liquid scintillation counting (Multipurpose Scintillation Counter LS 6500; Beckman, USA). As controls, sPLA2 was pre-incubated with the assay buffer alone. All samples, including controls, were performed in triplicate and plotted as the percentage inhibition relative to negative controls.
A sigmoid dose response curve was generated to allow calculation of the IC50 values. All samples were performed in triplicate. Results were analyzed by nonlinear regression with GraphPad Prism (version 2.01) and expressed as the percentage of inhibition relative to control values.

human recombinant MMP-1 = target: T2, human recombinant MMP-1 (Homo sapiens, UniProt P03956); assay: MMP-1 colorimetric assay (BIOMOL AK-404 QuantiZyme)
T2 construct: human recombinant MMP-1 catalytic domain in each well (15.3 U, 20 μL); purchased BIOMOL AK-404
T2 sequence (P03956 100-269 limits assumed): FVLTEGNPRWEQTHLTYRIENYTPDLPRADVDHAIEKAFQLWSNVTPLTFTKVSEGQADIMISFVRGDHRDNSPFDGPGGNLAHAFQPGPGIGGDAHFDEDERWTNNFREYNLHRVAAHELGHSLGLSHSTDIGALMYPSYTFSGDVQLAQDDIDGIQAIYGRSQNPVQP
Protocol: FIG. 3 illustrates the results of an assay on inhibition of human recombinant MMP-1 enzyme activity by various peptide mutants. (A) MMP-1 Activity Curves: The reaction velocity (V) was determined from the slope of the OD versus time (min) plot for each test inhibitor using the linear regression analysis. (∘), Human recombinant MMP-1 purified enzyme; (□), NNGH standard positive control MMP-1 selective inhibitor; (▾), P-NT.II; (▴), D60,65E dimer; (•), PIP [57-67] dimer; (▪), PIP [59-67] dimer. (B) MMP-1 Activity Inhibition Curves: Inhibition curves of various peptide mutants against the human MMP-1 activity. Results are expressed as the mean±SD (n=3).
Inhibition of MMP-1 enzymatic activity: Enzyme inhibition by peptide analogues was assessed by using MMP-1 Colorimetric assay kit for drug discovery (BIOMOL AK-404 QuantiZyme Assay system). Briefly, human recombinant MMP-1 catalytic domain in each well (15.3 U, 20 μL) was allowed to react either with the candidate peptide (test inhibitor) dissolved in DMSO (final 0.5% DMSO in assay buffer), or with the assay buffer alone (control) for 30 min at 37° C. Immediately following incubation, the reaction was initiated by adding the thiopeptide substrate solution in assay buffer (10 μL of 100 μM Ac-PLG-[2-mercapto-4-methyl-pentanoyl]-LG-OC2H5) into each well, and the absorbance at 412 nm continuously monitored for 10 min. 1 mM Ellman's reagent [5,5′-dithiobis (2-nitrobenzoic acid] in assay buffer (50 mM HEPES, 10 mM CaCl2, 0.05% Brij-35) was used as a colour developer in this assay system. The reaction velocity (V) was determined from the slope of the OD versus time (min) plot for each test inhibitor using the linear regression analysis (Graph Pad Prism, Version 2). Inhibition (%) was then calculated using the equation, [100]−[(V inhibitor/control)×100].

[2] = fixed peptide concentration (5 μM), 3H-labelled E. coli membrane assay

Compound | Collagenase (% Inhibition) (collagenase I (MMP-1)) [%] | inhibition at 5 µM [1, 2] [%] | further results
RVDIHVWDGVYIRGR [PIP [58-72], P-NT.II analogue] | 23.3 ± 2.9 | – | –
CC[C@H](C)[C@H](NC(=O)[C@H](CC(=O)O)NC(=O)[C@@H](N)C(C)C)C(=O)N[C@@H](Cc1c[nH]cn1)C(=O)N[C@H](C(=O)N[C@@H](Cc1c[nH]c2ccccc12)C(=O)N[C@@H](C)C(=O)NCC(=O)N[C@H](C(=O)O)C(C)C)C(C)C [D65A-PIP [59-67], VDIHVW (A) GV] (H-VDIHVWAGV-OH; N-terminus and C-terminus assumed) | – | 48.5 ± 2.34 | –
CC[C@H](C)[C@H](NC(=O)[C@H](CC(=O)O)NC(=O)[C@@H](N)C(C)C)C(=O)N[C@@H](Cc1cnc[nH]1)C(=O)N[C@H](C(=O)N[C@@H](Cc1c[nH]c2ccccc12)C(=O)N[C@@H](CC(=O)O)C(=O)NCC(=O)N[C@H](C(=O)N[C@H](C(=O)N[C@@H](CC(=O)O)C(=O)N[C@H](C(=O)N[C@@H](Cc1cnc[nH]1)C(=O)N[C@H](C(=O)N[C@@H](Cc1c[nH]c2ccccc12)C(=O)N[C@@H](CC(=O)O)C(=O)NCC(=O)N[C@H](C(=O)O)C(C)C)C(C)C)[C@@H](C)CC)C(C)C)C(C)C)C(C)C [PIP [59-67] dimer] (H-VDIHVWDGVVDIHVWDGV-OH) | – | – | IC50 (human recombinant MMP-1): 0.902 µM
GRVDIHVWDGVYIRGR [PIP [57-72], P-NT.II analogue] | 39.8 ± 3.5 | – | –
CC[C@H](C)[C@H](NC(=O)[C@H](CC(=O)O)NC(=O)[C@@H](NC(=O)[C@@H](N)CCCNC(=N)N)C(C)C)C(=O)N[C@@H](Cc1c[nH]cn1)C(=O)N[C@H](C(=O)N[C@@H](Cc1c[nH]c2ccccc12)C(=O)N[C@@H](CC(=O)O)C(=O)NCC(=O)N[C@H](C(=O)O)C(C)C)C(C)C [PIP [58-67]] (H-RVDIHVWDGV-OH) | 29.4 ± 6.0 | – | –
VDIHVWDGVYIRGR [PIP [59-72], P-NT.II analogue] | 14.5 ± 2.4 | – | –
CC[C@H](C)[C@H](NC(=O)[C@H](CCC(=O)O)NC(=O)[C@@H](N)C(C)C)C(=O)N[C@@H](Cc1c[nH]cn1)C(=O)N[C@H](C(=O)N[C@@H](Cc1c[nH]c2ccccc12)C(=O)N[C@@H](CCC(=O)O)C(=O)NCC(=O)N[C@H](C(=O)O)C(C)C)C(C)C [D60,65E-PIP [59-67]] (H-VEIHVWEGV-OH; N-terminus and C-terminus assumed) | 5.4 ± 1.8 | 61.4 ± 4.32 | –
DIHVWDG [PIP [60-66], P-NT.II analogue] | 4.7 ± 2.6 | – | –
CC[C@H](C)[C@H](NC(=O)[C@H](CCC(=O)O)NC(=O)[C@@H](N)C(C)C)C(=O)N[C@@H](Cc1c[nH]cn1)C(=O)N[C@H](C(=O)N[C@@H](Cc1c[nH]c2ccccc12)C(=O)N[C@@H](CCC(=O)O)C(=O)NCC(=O)N[C@H](C(=O)N[C@H](C(=O)N[C@@H](CCC(=O)O)C(=O)N[C@H](C(=O)N[C@@H](Cc1c[nH]cn1)C(=O)N[C@H](C(=O)N[C@@H](Cc1c[nH]c2ccccc12)C(=O)N[C@@H](CCC(=O)O)C(=O)NCC(=O)N[C@H](C(=O)O)C(C)C)C(C)C)[C@@H](C)CC)C(C)C)C(C)C)C(C)C [D60,65E-PIP [59-67] dimer] (H-VEIHVWEGVVEIHVWEGV-OH; N-terminus and C-terminus assumed) | – | 68.5 ± 3.94 | IC50 [1]: 4.23 ± 0.67 µM; IC50 (human recombinant MMP-1): 3.74 µM
LGRVDIHVWDGVYI [PIP [56-69], P-NT.II analogue] | 59.8 ± 6.2 | – | –
LGRVDIHVWDGVYIR [PIP [56-70], P-NT.II analogue] | 60.6 ± 4.5 | – | –
GRVDIHVWDGV [PIP [57-67], P-NT.II analogue] | 65.1 ± 3.3 | – | –
CC[C@H](C)[C@H](NC(=O)[C@H](CC(=O)O)NC(=O)[C@@H](NC(=O)[C@H](CCCNC(=N)N)NC(=O)CN)C(C)C)C(=O)N[C@@H](Cc1c[nH]cn1)C(=O)N[C@H](C(=O)N[C@@H](Cc1c[nH]c2ccccc12)C(=O)N[C@@H](CC(=O)O)C(=O)NCC(=O)N[C@H](C(=O)NCC(=O)N[C@@H](CCCNC(=N)N)C(=O)N[C@H](C(=O)N[C@@H](CC(=O)O)C(=O)N[C@H](C(=O)N[C@@H](Cc1c[nH]cn1)C(=O)N[C@H](C(=O)N[C@@H](Cc1c[nH]c2ccccc12)C(=O)N[C@@H](CC(=O)O)C(=O)NCC(=O)N[C@H](C(=O)O)C(C)C)C(C)C)[C@@H](C)CC)C(C)C)C(C)C)C(C)C [PIP [57-67] dimer] (H-GRVDIHVWDGVGRVDIHVWDGV-OH; N-terminus and C-terminus assumed) | – | 76.4 ± 3.87 | IC50 [1]: 2.43 ± 0.76 µM; IC50 (human recombinant MMP-1): 0.97 µM
VDIHVW (βD) GV [β-Asp65-PIP [59-67]] | – | – | % Inhibition (mean ± SD) [1, 2]: 49.71 ± 3.01%
LGRVDIHVWDGVY [PIP [56-68], P-NT.II analogue] | 61.6 ± 7.6 | – | –
CC[C@H](C)[C@H](NC(=O)[C@H](CC(=O)O)NC(=O)[C@@H](N)C(C)C)C(=O)N[C@@H](Cc1c[nH]cn1)C(=O)N[C@H](C(=O)N[C@@H](Cc1c[nH]c2ccccc12)C(=O)N[C@@H](CCC(=O)O)C(=O)NCC(=O)N[C@H](C(=O)O)C(C)C)C(C)C [D65E-PIP [59-67], VDIHVW (E) GV] (H-VDIHVWEGV-OH; N-terminus and C-terminus assumed) | – | 57.6 ± 3.22 | –
CC[C@H](C)[C@H](NC(=O)[C@H](Cc1ccc(O)cc1)NC(=O)[C@@H](NC(=O)CNC(=O)[C@H](CC(=O)O)NC(=O)[C@H](Cc1c[nH]c2ccccc12)NC(=O)[C@@H](NC(=O)[C@H](Cc1cnc[nH]1)NC(=O)[C@@H](NC(=O)[C@H](CC(=O)O)NC(=O)[C@@H](NC(=O)[C@H](CCCNC(=N)N)NC(=O)CNC(=O)[C@@H](N)CC(C)C)C(C)C)[C@@H](C)CC)C(C)C)C(C)C)C(=O)N[C@@H](CCCNC(=N)N)C(=O)NCC(=O)N[C@@H](CCCNC(=N)N)C(=O)O [P-NT.II] (H-LGRVDIHVWDGVYIRGR-OH) | – | – | IC50 (human recombinant MMP-1): 1.55 µM
CC[C@H](C)[C@H](NC(=O)[C@H](CC(=O)O)NC(=O)[C@@H](N)C(C)C)C(=O)N[C@@H](Cc1c[nH]cn1)C(=O)N[C@H](C(=O)N[C@@H](Cc1c[nH]c2ccccc12)C(=O)N[C@@H](CO)C(=O)NCC(=O)N[C@H](C(=O)O)C(C)C)C(C)C [D655-PIP [59-67], VDIHVW (S) GV] (H-VDIHVWSGV-OH; N-terminus and C-terminus assumed) | – | 52.5 ± 1.08 | –
LGRVDIHVWDGVYIRG [PIP [56-71], P-NT.II analogue] | 62.8 ± 6.6 | – | –
